# How the values were obtained:
# [1] = system: NF-κB; assay: TPA-induced NF-κB phosphorylation in mouse skin, western blot; assay type: in vivo; settings: topical for 2 h after TPA
# Experimental: Shaven abdominal skins of female C57BL/6JNarl mice were not treated or topically treated with vehicle (acetone, 200 μl/site) or TPA (10 nmol in 200 μl acetone/site) at indicated time points or treated first with TPA for 10 min, then with the indicated concentrations of BrD1 at the indicated time points. Abdominal skin samples were collected, homogenated and lysed to prepare total proteins. Protein samples were subsequently resolved by SDS-PAGE using a gradient gel. The resolved proteins were transferred to a PVDF Immobilon-P membrane (Millipore, Bedford, Calif.), and the membrane was blocked with 5% non-fat dry milk in PBST buffer (phosphate-buffered saline (PBS) containing 0.1% Tween 20) for 60 minutes at room temperature. The membranes were incubated overnight at 4° C. with commercially available antibodies (1:1000 dilutions). Loading of equal amounts of protein was assessed using mouse β-actin. The blots were rinsed three times with PBST buffer for 5 minutes. Washed blots were incubated with HRP-conjugated secondary antibody (1:100,000 dilution), then washed again three times with PBST buffer. […] Quantification of bands was performed using Image J software.
# We therefore evaluated whether BrD1 could interfere with TPA-induced activation of Akt and Erk in inflamed skin. […] We thus determined the phosphorylation level of Akt, Erk, NF-κB and IκBα in skins subjected to different treatments. […]
# [2] = system: COX-2; assay: TPA-induced COX-2 expression in mouse skin, immunohistochemical staining; assay type: in vivo; settings: topical for 6 h after TPA, anti-COX-2 immunostaining
# [3] = system: abdominal skins of female C57BL/6 mice; assay: TPA-induced edema, H&E-stained skin sections; assay type: in vivo, mouse; settings: topical 1 mg/site for 6 h after TPA
# Experimental: Mice were treated or not treated topically on their shaven abdomens with acetone (vehicle only) or TPA (10 nmol in 200 μl acetone/site) for 6 h or treated first with TPA for 10 min, then with the indicated concentrations of BrD1 for 6 h. Mice were killed by cervical dislocation. Abdominal skin tissues were collected, fixed with formalin buffer and embedded in paraffin. Tissue sections ([…]) were cut and laid onto silanized glass slides and deparaffinized three times with xylene for 5 min each prior to rehydration using a graded alcohol bath. For hematoxyline and eosin staining, the sections were stained with hematoxyline and eosin staining. For immunohistochemical staining, the deparaffinized sections were boiled in 10 mM citrate buffer (pH 6.0) for 10 min for antigen retrieval and rinsed with PBS containing 0.05% Tween-20 buffer for 5 min. The sections were treated with 3% hydrogen peroxide in methanol for 15 min to decrease non-specific binding. […] Subsequently, peroxidase-binding sites were determined by staining with 3,3′-diaminobenzidine tetrahydrochloride (Dako). […]
# Since increased vascular permeability is one of factors contributing to the formation of edema, we next evaluated whether BrD1 inhibited formation of edema in TPA-induced inflammation by examining H&E-stained longitudinal sections of skin samples.
smiles,measurement,setting,value
"CCCC(=O)O[C@H]1C/C(C)=C\[C@@H]2OC(=O)[C@]3(C)O[C@]23[C@@H](OC(C)=O)[C@H]2[C@@H](C)[C@@H](O)C[C@H](OC(C)=O)[C@]2(C)[C@H]1OC(C)=O [BrD1, excavatolide B]",phosphorylation of NF-κB,[1],effectively inhibited the phoshporylation of NF-κB
same,phosphorylation of NF-κB,[1]; listed as excavatolide B,effectively inhibits the phoshporylation of NF-κB
same,TPA-induced COX-2 expression,[2],reduced the TPA-induced COX-2 expression in the epidermis
same,TPA-induced COX-2 expression,[2]; listed as excavatolide B,reduces the TPA-induced COX-2 expression in the epidermis
same,skin thickness (TPA-induced edema),[3],substantially decreased the skin thickness
same,skin thickness (TPA-induced edema),[3]; listed as excavatolide B,substantially decreases the skin thickness

# Reference: patent US8530513B1, “Pharmaceutical uses of diterpene excavatolide B from a coral or an analogue thereof” (National Sun Yat-Sen University, priority 2012, dated 2013)
